According to patent US11274115B2, “Imidazoquinoline derivatives and their use in therapy” (GLAXOSMITHKLINE BIOLOGICALS SA, priority 2016, dated 2022):
Like-named read-outs stand apart in the source and are kept apart here.

Tests used:
Type in all cases: cell-based
[1] = test system: human peripheral blood mononuclear cells (hPBMCs); experiment: IFN-α induction in hPBMCs; conditions: 24 h
Description: (§1) Assays to Measure Cytokine Induction
(§2) Test compounds were evaluated for cytokine induction in human peripheral blood mononuclear cells (hPBMCs).
(§3) Primary human PBMCs were isolated from fresh blood from healthy donors via Ficoll gradient separation and plated at 0.5×10^6 cells/well in 96-well tissue culture plates (RPMI-1640 plus 10% FBS). hPBMCs were maintained with RPMI-1640 culture media (Invitrogen, Grand Island, N.Y.), antibiotics (Invitrogen) and 10% FBS (Sigma).
(§4) Incubation and Assays for IFN-γ, IFN-α and TNF-α
(§5) hPBMCs were stimulated for 24 h with aqueous formulations of test compounds. Culture supernatants were analyzed for TNF-α and IFN-γ induction using multiplex kits (FluoroKine multiplex kits from R&D Systems, Minneapolis, Minn.) and for IFN-α induction using human IFN-α VeriKine ELISA kit (Pestka Biomedical Laboratories, Inc., Piscataway, N.J.).

human TLR8 = target: T1, human TLR8 (Homo sapiens, UniProt Q9NR97); experiment: hTLR8 agonist reporter assay in HEK293 cells (NFκB-SEAP); conditions: for EC50: read-out: hTLR8 ED50
T1 construct: host or cells: HEK293
T1 sequence (Q9NR97 27-1041): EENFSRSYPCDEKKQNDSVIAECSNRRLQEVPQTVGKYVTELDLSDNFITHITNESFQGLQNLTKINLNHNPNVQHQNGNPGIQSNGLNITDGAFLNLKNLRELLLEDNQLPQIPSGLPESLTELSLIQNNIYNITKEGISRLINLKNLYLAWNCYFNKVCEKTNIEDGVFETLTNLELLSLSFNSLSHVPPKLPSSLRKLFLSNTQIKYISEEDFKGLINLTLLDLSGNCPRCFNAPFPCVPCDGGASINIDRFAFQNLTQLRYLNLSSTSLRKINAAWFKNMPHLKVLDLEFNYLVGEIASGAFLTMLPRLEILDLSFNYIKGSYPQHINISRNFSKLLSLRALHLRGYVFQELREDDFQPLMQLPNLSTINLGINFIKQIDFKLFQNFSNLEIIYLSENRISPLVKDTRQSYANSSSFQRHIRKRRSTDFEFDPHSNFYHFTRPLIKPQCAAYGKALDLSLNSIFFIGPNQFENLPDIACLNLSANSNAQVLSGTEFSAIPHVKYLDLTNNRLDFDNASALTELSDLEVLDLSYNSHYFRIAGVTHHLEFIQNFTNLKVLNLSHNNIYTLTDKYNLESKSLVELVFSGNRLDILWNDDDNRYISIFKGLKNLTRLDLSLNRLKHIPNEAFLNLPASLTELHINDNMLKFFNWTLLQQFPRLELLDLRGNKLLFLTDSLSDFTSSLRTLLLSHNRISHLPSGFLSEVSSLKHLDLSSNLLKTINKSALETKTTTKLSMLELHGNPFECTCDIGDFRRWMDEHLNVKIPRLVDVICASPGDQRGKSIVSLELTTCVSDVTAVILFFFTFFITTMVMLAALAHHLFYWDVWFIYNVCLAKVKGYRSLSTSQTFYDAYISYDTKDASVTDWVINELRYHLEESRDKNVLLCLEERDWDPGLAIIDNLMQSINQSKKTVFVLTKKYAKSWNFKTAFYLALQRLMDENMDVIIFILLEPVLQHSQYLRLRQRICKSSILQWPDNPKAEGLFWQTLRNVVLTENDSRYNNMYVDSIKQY
Description: Assay for hTLR7 and hTLR8 Agonist Activity in HEK-293 Cells
Determination of TLR agonist activity was performed using the HEK293 […]. This assay measures TLR7 and TLR8 selectivity and potency of the compounds tested. HEK293 cells expressing human TLR7 or TLR8 and NFκB responsive Secreted Embryonic Alkaline Phosphatase (SEAP) reporter gene were obtained from InvivoGen (San Diego, Calif.). These cells were maintained in culture media of Dulbecco's Modified Eagle Medium (DMEM) (Invitrogen, Grand Island, N.Y.), 10% Fetal Bovine Serum (FBS) (Sigma, St. Louis, Mo.) and selection antibiotics (Invitrogen, and Invivogen). HEK293 stably transfected with human TLR7 (hTLR7) or human TLR8 (hTLR8) were stimulated for 24 h with aqueous formulations of test compounds and culture supernatants were analyzed for NFκB activation using the colorimetric SEAP detection kit QuantBlue (InvivoGen).

[2] = test system: human peripheral blood mononuclear cells (hPBMCs); experiment: TNF-α induction in hPBMCs; conditions: 24 h
Description: as §1, §2, §3, §4, §5

[3] = test system: human peripheral blood mononuclear cells (hPBMCs); experiment: IFN-γ induction in hPBMCs; conditions: 24 h
Description: as §1, §2, §3, §4, §5

EC50 (human TLR8; Table 1, FIG. 2, 24 h stimulation, aqueous formulations): 100 nM | EC50 (human TLR8; Table 2, FIG. 4, another occasion, * = only very low levels of NFKB activation were detected): 800 nM | hTLR8 agonist activity, in words (human TLR8; Table 3, FIG. 6): agonist of both TLR7 and TLR8 | EC50 (human TLR8; Table 3, FIG. 6, another occasion, * = only very low levels of NFKB activation were detected): 590 nM | EC50 (human TLR8; Table 4, FIG. 8, another occasion): 710 nM
Structure (SMILES): CCCCCCCC/C=C\CCCCCCCC(=O)OC[C@H](COP(=O)(O)OCCOc1ccc2c(c1)nc(N)c1nc(CCCC)n(CCO)c12)OC(=O)CCCCCCC/C=C\CCCCCCCC [Example 1]
IFN-α induction, in words ([1]; FIG. 10): equipotent at inducing IFN-α and these were more potent than Comparative Example 1 and Comparative Example 2 in this assay at a lower dose | IFN-α induction, in words ([1]; FIG. 12, another occasion): more potent at inducing IFN-α than Comparative Examples 1, 2 and 3 | IFN-α induction, in words ([1]; FIG. 14, another occasion): very effective at inducing IFN-α | IFN-α induction, in words ([1]; FIG. 16, another occasion): good activity in inducing IFN-α | hTLR8 agonist activity, in words (human TLR8; text on Table 1, FIG. 2): significantly more potent as an agonist of hTLR7 and hTLR8 than Comparative Example 2 | hTLR8 agonist activity, in words (human TLR8; text on Table 2, FIG. 4): more active than Comparative Example 2 as an agonist of hTLR7 and hTLR8 | TNF-α induction, in words ([2]; FIG. 13): potent at inducing TNF-α | TNF-α induction, in words ([2]; FIG. 15, another occasion): effective at inducing TNF-α | IFN-γ induction, in words ([3]; FIG. 9): more potent than Comparative Example 3 but less potent than Comparative Example 1 | IFN-γ induction, in words ([3]; FIG. 11, another occasion): potent at inducing IFN-γ and each was more potent than Comparative Example 3
